The text below walks through data of patent US10413583B2, “Synthetic substrates for enzymes that catalyze reactions of modified cysteines and related methods” (The University of Chicago, priority 2016, dated 2019).

Data set [1] can be described thus: Water solubility of probes (stated in words). The format is physicochemical.
Data set [2] deals with T1, APT1 (Homo sapiens, UniProt O75608).
T1 construct: His-tag; made in house; host or cells: E. coli ROSETTA DE3
Briefly: In vitro kinetic assays and emission spectra of DPP-1, DPP-4, DPP-5 with APT1 (no detergent). The format is biochemical. The procedure: (§1) 150 μL of 2 μM DPP-1, DPP4 or DPP-5 in HEPES (20 mM, pH=7.4, 150 mM NaCl) were added to a 96-well optical bottom plate (Nunc 265301, Fisher Scientific, Pittsburgh, Pa., United States of America) at room temperature. 150 μL of either HEPES buffer alone or HEPES buffer containing 100 nM APT1 or APT2 (purification using previous methods), was added using a multi-channel pipette, resulting in a final concentration of 1 μM DPP-1/DPP4/DPP-5 and 50 nM APT1 or APT2. Fluorescence intensities (λex 490/20 nm, λem 545/20 nm, Gain 80, read from bottom with height 4.5 mm, and sweep method) were measured at 15 s time intervals for 30 min at 37° C. Following the 30 min kinetic run, emission spectra were obtained (λex 480/20 nm, Aem515-700 nm, Gain 80, read from bottom with height 4.5 mm, and sweep method).

For data set [3], the target named is T2, APT2 (Homo sapiens, UniProt O95372).
T2 construct: His-tag; made in house; host or cells: E. coli ROSETTA DE3
T2 sequence (O95372 whole entry): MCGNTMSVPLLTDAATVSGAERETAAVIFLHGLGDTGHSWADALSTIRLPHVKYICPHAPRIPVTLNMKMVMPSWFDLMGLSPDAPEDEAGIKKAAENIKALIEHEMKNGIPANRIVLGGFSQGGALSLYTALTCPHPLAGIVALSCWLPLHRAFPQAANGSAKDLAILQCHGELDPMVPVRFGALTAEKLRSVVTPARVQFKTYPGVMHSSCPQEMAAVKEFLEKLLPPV
Kind of data set: In vitro kinetic assays and emission spectra of DPP-1, DPP-4, DPP-5 with APT2 (no detergent). The format is biochemical. The procedure: as §1

In data set [4] the target is T2, APT2. Briefly: Enzyme kinetics analysis of DPP-5 with APT2. The data set is classed as biochemical. The following applies: APT2 50 nM. As to the method: 150 μL of 1 M DTT in HEPES buffer was added to different concentrations of 150 μL DPP-5 and then the stable fluorescence intensities of totally deacylated product were measured by the methods described above. Fluorescence intensity of per molar deacylated-product was then calculated by linear least-squares fitting of plots of fluorescence vs. concentration. For Michaelis-Menten constant, in vitro kinetics curves were obtained for different final concentrations of DPP-5 in HEPES with 50 nM APT1 or APT2. The fluorescence intensities measured were then normalized to the concentrations of product by fluorescence-intensity-permolar-product. A Lineweaver-Burk plot was used to calculate the Michaelis constant, KM, and the maximum velocity, Vmax, which is proportional to kcat by concentration of APT1 or APT2. All fits have R^2 values of >0.99.

The nature of data set [5]: Log P analysis of DPP-1/4/5. The data set is classed as physicochemical. The following applies: 1-octanol / Hepes buffer. As to the method:
2 μL of 1 mM of DPP-1/4/5 was dissolved in 500 μL of Hepes buffer in two 1.5 mL tubes. To one tube, 500 μL of 1-octanol was added and the tube was shaken for 10 min followed by keeping it undisturbed for 10 min. Then, 10 μL of aqueous phase from each tube was placed in a 96 well plate reader. To this, 190 μL of 1M NaOH was added and fluorescence intensities (λex 490/20 nm, λem 545/20 nm, Gain 80, read from bottom with height 4.5 mm, and sweep method) were measured at 15 second time intervals for 1 hr at room temperature. The fluorescence read out at saturation was used to calculate Log P values by following equation: log P=log(Foct/Faq) Foct=Ftotal−Faq where: Foct=Fluorescence of 1-octanol fraction; Faq=Fluorescence of the aqueous fraction after treatment with 1-octanol, and Ftotal=Fluorescence of the aqueous fraction with no treatment with 1-octanol.

Data set [6] concerns human colon organoids. Briefly: Epifluorescent imaging of RDP-2 with human colon organoids. The data set is classed as cell-based. The settings on record: 40 μM inhibitor 30 min, 5 μM RDP-2. As to the method: At least 24 h before imaging experiments, cultured colon organoids were split using a 25G needle and 1 mL syringe, pelleted, and 50-100 organoids per well were re-plated in eight-well chambered slides (20 μL droplets/well; 250 μL organoid growth media; Cellvis, Mountain View, Calif., United States of America) for treatment and imaging. 30 min before the addition of RDP-2, the cell culture media was removed and cells were washed with 300 μL of serum-free FluoroBrite DMEM (Gibco, Gaithersburg, Md., United States of America; High Glucose, Glutamax, no FBS). […] After incubation for 10 min at 37° C. and 5% CO2, the cells were washed with 300 μL Live Cell Imaging Solution and 300 μL of Live Cell Imaging Solution containing DMSO or the appropriate inhibitor was added to the cells immediately before images were obtained on an inverted epi-fluorescence microscope (Olympus IX83; Olympus Corporation, Tokyo, Japan) attached with EMCCD camera (Photometrics EVOLVE™ Delta, Photometrics, Tucson, Ariz., United States of America) with 40× oil objective (N/A 1.3) for RDP-2 (excitation filter 1 430/24 nm, dichroic chroma 89007, emission filter 1 470/24 nm, exposure time 150 ms, EM gain 100, excitation filter 2 480/20 nm, dichroic chroma 49014, emission filter 2 575/40 nm, exposure time 75 ms, EM gain 75), brightfield (exposure time 50 ms, EM gain 30). […]

T1 sequence (O75608 whole entry): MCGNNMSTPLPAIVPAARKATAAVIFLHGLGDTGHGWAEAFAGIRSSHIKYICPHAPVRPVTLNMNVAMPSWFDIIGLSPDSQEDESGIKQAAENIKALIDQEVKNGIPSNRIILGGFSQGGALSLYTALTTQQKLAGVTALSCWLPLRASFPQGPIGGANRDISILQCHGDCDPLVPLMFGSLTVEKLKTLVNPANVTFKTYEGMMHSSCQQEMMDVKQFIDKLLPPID

The term Km denotes the substrate concentration at which the rate is half of its maximum. By LogP is commonly meant the decadic logarithm of the partition coefficient of the neutral form, usually between octanol and water. A low value points to lower lipophilicity. With `CCCCCCCCCCCCCCCC(=O)SC[C@@H](C(=O)NC)N(C)C(=O)Oc1ccc2c(c1)Oc1cc(N3CCN(C(=O)CCC(=O)O)CC3)ccc1C21OC(=O)c2ccccc21` (stereo partly shown) [DPP-5], the “water solubility” value in data set [1] is listed as “relatively higher water solubility”. Besides, the “enhancement in intensity of fluorescence signal” value in data set [2] (1 μM probe, 50 nM APT1, 30 minutes, absence of detergents) came to 350 fold; in data set [3] (1 μM probe, 50 nM APT2, 30 minutes, absence of detergents) it was 350 fold. In addition, the “in vitro kinetics” value is given as “more rapid turn-on response” in data set [2] (APT1, absence of detergents) and “more rapid turn-on response” in data set [3] (APT2, absence of detergents). Further, in data set [4], the Kcat turned out to be 0.066 s⁻¹. The Km in data set [4] (Lineweaver-Burk) worked out at 2.1 µM. In data set [5], this compound showed a LogP of 0.79.

On to `O=C(CN1CCN(C(=O)c2ccco2)CC1)Nc1cc(C(F)(F)F)ccc1Cl` [ML348], for which, in data set [6], the “inhibition / decrease of measured S-depalmitoylation, RDP-2” value was “about 20%”.

In the case of `CCCCCCCCCC[C@@H]1C(=O)O[C@H]1CCc1ccc(OC)c(OC)c1` [PalmB, palmostatin B], the “inhibition / decrease of measured S-depalmitoylation, RDP-2” value in data set [6] is listed as “about 50%”.
